test system: Plutella xylostella; experiment: Plutella xylostella, leaf dip method; assay type: in vivo; details: foliar, cabbage leaf dip, second instar larvae, 72 h after release, dead + moribund vs untreated control, read-out: percent mortality
Procedure: The leaf dip method was used for testing, wherein the required quantity of the compound was weighed and dissolved in a tube containing solvent solution. The tube was put on a vortex at 2000 rpm for 90 min for proper mixing, then diluted with 0.01% Triton-X solution to get the desired test concentration. Cabbage leaves were dipped in the compound solution for 10 seconds, shade dried for 20 min and then transferred into the cells of bioassay trays. A single second instar larva was released into each cell and the tray was covered with a lid. The bio-assay trays were then kept under laboratory conditions at a temperature of 25° C. and a relative humidity of 70%. Observations on dead, moribund and alive larvae were recorded 72 h after the release. Percent mortality was calculated by combining dead and moribund larvae and comparing the result to the one of the untreated control.

| Structure (SMILES) | mortality at 300 ppm |
| --- | --- |
| CCS(=O)(=O)c1cc(N(C)C)cnc1-c1ccn2nc(C(F)(F)F)cc2n1 [Compound 230, 5-(ethylsulfonyl)-N,N-dimethyl-6-(2-(trifluoromethyl)pyrazolo[1,5-a]pyrimidin-5-yl)pyridin-3-amine] | ≥ 70% |
| CCS(=O)(=O)c1ccc(NCC2CC2)nc1-c1ccn2nc(C(F)(F)F)cc2n1 [Compound 242, N-(cyclopropylmethyl)-5-(ethylsulfonyl)-6-(2-(trifluoromethyl)pyrazolo[1,5-a]pyrimidin-5-yl)pyridin-2-amine] | ≥ 70% |
| CCSc1cc(-c2ccc(F)cc2)cnc1-c1ccn2nc(C(F)(F)F)cc2n1 [Compound 190, 5-(3-(ethylthio)-5-(4-fluorophenyl)pyridin-2-yl)-2-(trifluoromethyl)pyrazolo[1,5-a]pyrimidine] | ≥ 70% |
| CC#Cc1ccc(S(=O)(=O)CC)c(-c2ccn3nc(C(F)(F)F)cc3n2)n1 [Compound 173, 5-(3-(ethylsulfonyl)-6-(prop-1-yn-1-yl)pyridin-2-yl)-2-(trifluoromethyl)pyrazolo[1,5-a]pyrimidine] | ≥ 70% |
| CCS(=O)(=O)c1cc(-n2cncn2)cnc1-c1ccn2nc(C(F)(F)F)nc2n1 [Compound 146, 5-(3-(ethylsulfonyl)-5-(1H-1,2,4-triazol-1-yl)pyridin-2-yl)-2-(trifluoromethyl)-[1,2,4]triazolo[1,5-a]pyrimidine] | ≥ 70% |
| CCS(=O)(=O)c1ccc(OCC(F)(F)F)nc1-c1ccn2nc(C(F)(F)F)cc2n1 [Compound 239, 5-(3-(ethylsulfonyl)-6-(2,2,2-trifluoroethoxy)pyridin-2-yl)-2-(trifluoromethyl)pyrazolo[1,5-a]pyrimidine] | ≥ 70% |
| CCS(=O)(=O)c1cc(-c2cc(F)cc(F)c2)cnc1-c1ccn2nc(C(F)(F)F)nc2n1 [Compound 103, 5-(5-(3,5-difluorophenyl)-3-(ethylsulfonyl)pyridin-2-yl)-2-(trifluoromethyl)-[1,2,4]triazolo[1,5-a]pyrimidine] | ≥ 70% |
| CCS(=O)(=O)c1cc(OCC2CC2)cnc1-c1ccn2nc(C(F)(F)F)nc2n1 [Compound 161, 5-(5-(cyclopropylmethoxy)-3-(ethylsulfonyl)pyridin-2-yl)-2-(trifluoromethyl)-[1,2,4]triazolo[1,5-a]pyrimidine] | ≥ 70% |
| CCS(=O)(=O)c1cc(-c2ccc(C(F)(F)F)cc2)cnc1-c1ncc2nc(C(F)(F)F)n(C)c2n1 [Compound 129, 2-(3-(ethylsulfonyl)-5-(4-(trifluoromethyl)phenyl)pyridin-2-yl)-9-methyl-8-(trifluoromethyl)-9H-purine] | ≥ 70% |
| CCS(=O)(=O)c1cc(-c2ccc(F)cc2)cnc1-c1ccn2nc(C(F)(F)F)nc2n1 [Compound 105, 5-(3-(ethylsulfonyl)-5-(4-fluorophenyl)pyridin-2-yl)-2-(trifluoromethyl)-[1,2,4]triazolo[1,5-a]pyrimidine] | ≥ 70% |
| CCS(=O)(=O)c1ccc(OC)nc1-c1ccn2nc(C(F)(F)F)cc2n1 [Compound 226, 5-(3-(ethylsulfonyl)-6-methoxypyridin-2-yl)-2-(trifluoromethyl)pyrazolo[1,5-a]pyrimidine] | ≥ 70% |
| CCS(=O)(=O)c1cc(-c2cc(F)cc(Cl)c2)cnc1-c1ncc2nc(C(F)(F)F)n(C)c2n1 [Compound 131, 2-(5-(3-chloro-5-fluorophenyl)-3-(ethylsulfonyl)pyridin-2-yl)-9-methyl-8-(trifluoromethyl)-9H-purine] | ≥ 70% |
| CCS(=O)(=O)c1cc(N)cnc1-c1ccn2nc(C(F)(F)F)cc2n1 [Compound 223, 5-(ethylsulfonyl)-6-(2-(trifluoromethyl)pyrazolo[1,5-a]pyrimidin-5-yl)pyridin-3-amine] | ≥ 70% |
| CCSc1cc(-c2ccc(OC(F)(F)C(F)F)cc2)cnc1-c1ccn2nc(C(F)(F)F)cc2n1 [Compound 191, 5-(3-(ethylthio)-5-(4-(1,1,2,2-tetrafluoroethoxy)phenyl)pyridin-2-yl)-2-(trifluoromethyl)pyrazolo[1,5-a]pyrimidine] | ≥ 70% |
| CCc1cnc(-c2ccn3nc(C(F)(F)F)cc3n2)c(S(=O)(=O)CC)c1 [Compound 211, 5-(5-ethyl-3-(ethylsulfonyl)pyridin-2-yl)-2-(trifluoromethyl)pyrazolo[1,5-a]pyrimidine] | ≥ 70% |
| CCS(=O)(=O)c1cc(CC#N)cnc1-c1ccn2nc(C(F)(F)F)cc2n1 [Compound 232, 2-(5-(ethylsulfonyl)-6-(2-(trifluoromethyl)pyrazolo[1,5-a]pyrimidin-5-yl)pyridin-3-yl)acetonitrile] | ≥ 70% |
| CCS(=O)(=O)c1ccc(C2CC2)nc1-c1ccn2nc(C(F)(F)F)cc2n1 [Compound 171, 5-(6-cyclopropyl-3-(ethylsulfonyl)pyridin-2-yl)-2-(trifluoromethyl)pyrazolo[1,5-a]pyrimidine] | ≥ 70% |

| Structure (SMILES) | mortality at 300 ppm |
| --- | --- |
| CCS(=O)(=O)c1cc(-c2ccc(OC(F)(F)C(F)F)cc2)cnc1-c1ccn2nc(C(F)(F)F)nc2n1 [Compound 104, 5-(3-(ethylsulfonyl)-5-(4-(1,1,2,2-tetrafluoroethoxy)phenyl)pyridin-2-yl)-2-(trifluoromethyl)-[1,2,4]triazolo[1,5-a]pyrimidine] | ≥ 70% |
| CCS(=O)(=O)c1cc(-c2ccc(Cl)c(F)c2)cnc1-c1ncc2nc(C(F)(F)F)n(C)c2n1 [Compound 124, 2-(5-(4-chloro-3-fluorophenyl)-3-(ethylsulfonyl)pyridin-2-yl)-9-methyl-8-(trifluoromethyl)-9H-purine] | ≥ 70% |
| CCS(=O)(=O)c1ccc(C2CC2)nc1-c1ccn2nc(C(F)(F)F)nc2n1 [Compound 180, 5-(6-cyclopropyl-3-(ethylsulfonyl)pyridin-2-yl)-2-(trifluoromethyl)-[1,2,4]triazolo[1,5-a]pyrimidine] | ≥ 70% |
| CCS(=O)(=O)c1cc(-c2cncnc2)cnc1-c1ccn2nc(C(F)(F)F)nc2n1 [Compound 135, 5-(3-(ethylsulfonyl)-5-(pyrimidin-5-yl)pyridin-2-yl)-2-(trifluoromethyl)-[1,2,4]triazolo[1,5-a]pyrimidine] | ≥ 70% |
| CCS(=O)(=O)c1cc(-c2cccc(OC(F)(F)C(F)F)c2)cnc1-c1ccn2nc(C(F)(F)F)nc2n1 [Compound 144, 5-(3-(ethylsulfonyl)-5-(3-(1,1,2,2-tetrafluoroethoxy)phenyl)pyridin-2-yl)-2-(trifluoromethyl)-[1,2,4]triazolo[1,5-a]pyrimidine] | ≥ 70% |
| CCS(=O)(=O)c1cc(-n2cc(Br)cn2)cnc1-c1ccn2nc(C(F)(F)F)cc2n1 [Compound 88, 5-(5-(4-bromo-1H-pyrazol-1-yl)-3-(ethylsulfonyl)pyridin-2-yl)-2-(trifluoromethyl)pyrazolo[1,5-a]pyrimidine] | ≥ 70% |
| CCS(=O)(=O)c1cc(-c2ccn3nc(C(F)(F)F)cc3n2)cnc1-n1ncn(-c2ccc(Cl)cc2)c1=O [Compound 80, 4-(4-chlorophenyl)-2-(3-(ethylsulfonyl)-5-(2-(trifluoromethyl)pyrazolo[1,5-a]pyrimidin-5-yl)pyridin-2-yl)-2,4-dihydro-3H-1,2,4-triazol-3-one] | ≥ 70% |
| CCS(=O)(=O)c1cc(-c2cncnc2)cnc1-c1ccn2nc(C(F)(F)F)cc2n1 [Compound 95, 5-(3-(ethylsulfonyl)-5-(pyrimidin-5-yl)pyridin-2-yl)-2-(trifluoromethyl)pyrazolo[1,5-a]pyrimidine] | ≥ 70% |
| CCS(=O)(=O)c1cc(-c2cnn(C)c2)cnc1-c1ccn2nc(C(F)(F)F)cc2n1 [Compound 97, 5-(3-(ethylsulfonyl)-5-(1-methyl-1H-pyrazol-4-yl)pyridin-2-yl)-2-(trifluoromethyl)pyrazolo[1,5-a]pyrimidine] | ≥ 70% |
| CCS(=O)(=O)c1cc(-c2ccnn2C)cnc1-c1ccn2nc(C(F)(F)F)cc2n1 [Compound 71, 5-(3-(ethylsulfonyl)-5-(1-methyl-1H-pyrazol-5-yl)pyridin-2-yl)-2-(trifluoromethyl)pyrazolo[1,5-a]pyrimidine] | ≥ 70% |
| CCS(=O)(=O)c1ccc(OC(C)C)nc1-c1ccn2nc(C(F)(F)F)cc2n1 [Compound 240, 5-(3-(ethylsulfonyl)-6-isopropoxypyridin-2-yl)-2-(trifluoromethyl)pyrazolo[1,5-a]pyrimidine] | ≥ 70% |
| CCSc1cc(-n2cncn2)cnc1-c1ccn2nc(C(F)(F)F)cc2n1 [Compound 32, 5-(3-(ethylthio)-5-(1H-1,2,4-triazol-1-yl)pyridin-2-yl)-2-(trifluoromethyl)pyrazolo[1,5-a]pyrimidine] | ≥ 70% |
| CC#Cc1cnc(-c2ccn3nc(C(F)(F)F)cc3n2)c(S(=O)(=O)CC)c1 [Compound 178, 5-(3-(ethylsulfonyl)-5-(prop-1-yn-1-yl)pyridin-2-yl)-2-(trifluoromethyl)pyrazolo[1,5-a]pyrimidine] | ≥ 70% |
| CCS(=O)(=O)c1cc(-n2cc(Cl)cn2)cnc1-c1ccn2nc(C(F)(F)F)cc2n1 [Compound 89] | ≥ 70% |
| CCS(=O)(=O)c1ccc(NC(C)C)nc1-c1ccn2nc(C(F)(F)F)cc2n1 [Compound 241, 5-(ethylsulfonyl)-N-isopropyl-6-(2-(trifluoromethyl)pyrazolo[1,5-a]pyrimidin-5-yl)pyridin-2-amine] | ≥ 70% |
| C=Cc1cnc(-c2ccn3nc(C(F)(F)F)cc3n2)c(S(=O)(=O)CC)c1 [Compound 212, 5-(3-(ethylsulfonyl)-5-vinylpyridin-2-yl)-2-(trifluoromethyl)pyrazolo[1,5-a]pyrimidine] | ≥ 70% |

— patent US12514251B2, “Fused heterocyclic compounds and their use as pest control agents” (priority 2020, dated 2026)
